The results in this text go back to PubChem BioAssay (NCI).

Structures are written as SMILES.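 All cell lines were grown in 96-well plates and treated with compound for 48 hours. GI50 marks 50% less growth. At the TGI there is no net growth.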

Test in all cases: inhibition of tumour cell growth, NCI panel, 48 h
Assay [1] has as its system SNB-19 CNS.
Assay [2] deals with HCC-2998 colon.
Assay [3] concerns SF-268 CNS.
The subject of assay [4] is DLD-1 colon.
Assay [5] has as its system NCI-H460 lung.
Assay [6] deals with HCT-15 colon.
Assay [7] relates to M14 melanoma.
For assay [8], the system named is T-47D breast.
Assay [9] relates to MDA-N.
The subject of assay [10] is NCI-H226 lung.

Turning to `CC12CC(Sc3ccccc3N1)c1ccccc1O2` (stereo unspecified), the TGI in assay [1] was found to be 30 µM; in assay [2] it was 31 µM; in assay [3], 30.4 µM; in assay [4], 28.9 µM; in assay [5] it was 33.2 µM; in assay [6] it was 29.2 µM. For the same compound, the TGI in assay [7] was 37.6 µM.

Take `Oc1c2c(c(O)c3ccccc13)C1(N=N2)c2ccccc2Oc2ccccc21`: the TGI in assay [1] stood at 32.4 µM; in [2], 38.7 µM; in assay [3], 25.5 µM; in assay [8] it was 47.8 µM; in [5], 46.3 µM; in [9], 21.8 µM. Further, the results for the TGI in [6] and in [7] were 9.15 µM and 26.1 µM, respectively.

With `C#CC(=O)OCC#CCOC(=O)C#C`, the TGI in assay [1] is over 100 µM; in assay [2], 39.6 µM; in [3], over 100 µM; in [8], 60.2 µM; in assay [10], 40.3 µM; in assay [5], over 100 µM. The TGI was over 100 µM in assay [9], 36.5 µM in assay [6] and 49.5 µM in [7].

For `Nc1ncnc2nn(C3OC(CO)C(O)C3O)nc12` (stereo unspecified), the TGI in [1] was 99.1 µM; in [2], 32.8 µM; in [3], over 100 µM; in assay [8] it was over 44.5 µM; in assay [10], 40.5 µM; in assay [5], 25.3 µM. Besides, the values for the TGI in [9], in assay [6] and in assay [7] were over 82.6 µM, 45.3 µM and over 62.8 µM, respectively.

For `Brc1ccc(C2SCc3nc4ccccc4n32)cc1` (stereo unspecified), the TGI was 9.02 µM in [1]; 32.9 µM in [3]; 22.3 µM in assay [4]; 34.1 µM in [10]; 27.3 µM in assay [5]; 24.3 µM in [6]. This compound also showed a TGI in assay [7] of 25.5 µM.

For `C#C/C=C/CC1OC(C(Br)CC)CC(Br)C2CC1O2` (stereo unspecified), the TGI in assay [1], in assay [2], in assay [3], in [8], in assay [10] and in assay [5] was over 100 µM in each case. The TGI in assay [9], in [6] and in assay [7] was over 100 µM in each case.

Take `CC(=O)NC1=C(Sc2ccc(Cl)cc2)C(=O)c2ccccc2C1=O`: the TGI came to 28.6 µM in [1]; 27.8 µM in assay [2]; 8.41 µM in assay [3]; 4.95 µM in assay [8]; 24.2 µM in [10]; 23.2 µM in assay [5]. Moreover, the TGI in assay [9] is 3.17 µM; in assay [6] it was 19.1 µM.

On to `CCc1ncnc2cc(OCC3CO3)c(OC)cc12` (stereo unspecified), for which the TGI in assay [1] was over 100 µM; in assay [3] it was over 100 µM; in assay [8], over 100 µM; in assay [10], over 100 µM; in assay [5], 43.8 µM; in assay [9], 21.8 µM. For the same compound, the TGI in assay [6] was 34.9 µM; in [7], 23.8 µM.

With `NCCN1C(=O)c2ccccc2C1(O)c1ccc(Cl)cc1` (stereo unspecified), the TGI in [1] is 61 µM; in assay [3], 57.1 µM; in assay [8] it was 37.8 µM; in assay [10], over 100 µM; in assay [5] it was 30.4 µM; in assay [9], 32.7 µM. Further, the figures for the TGI in assay [6] and in assay [7] were over 100 µM and 36 µM, respectively.

In the case of `Cc1ccc(C)c2c(N=Nc3ccccc3[N+](=O)[O-])c(O)[nH]c12`, the TGI in assay [1], in assay [2], in assay [3], in assay [8], in [5] and in [9] was over 100 µM in each case. Besides, the TGI in assay [6] and in [7] was over 100 µM in each case.

`CC(C)(C)N=CN(C=C(c1ccccc1)c1ccccc1)C1CCCCC1`: the TGI in [1], in assay [3], in [4], in assay [5] and in [6] was over 100 µM in each case.

`C/C=C1\CCC2c3[nH]c4ccccc4c3CCN2C1` (stereo unspecified): the TGI was over 100 µM in assay [1]; over 100 µM in assay [3]; over 100 µM in assay [4]; over 100 µM in [10]; over 100 µM in [5]; 75.8 µM in [7].

With `CCCC#CCOC(=O)c1cc([N+](=O)[O-])cc([N+](=O)[O-])c1`, the TGI in assay [1], in [2], in assay [3], in [8], in assay [5] and in assay [9] was over 100 µM each time. The TGI in assay [6] and in [7] was over 100 µM in each case.

For the compound `O=c1cc(O)c2c(O)cc(O)cc2o1`, the TGI in assay [1], in assay [2], in assay [3], in assay [8], in assay [10] and in assay [5] was over 100 µM each time. Further, the TGI in assay [9], in assay [6] and in assay [7] was over 100 µM in each case.

In the case of `CC12CCC(O)CC1=CCC1C2CCC2(C)C(c3cccnc3)=CCC12` (stereo unspecified), the GI50 is over 100000 nM in assay [1]; over 100000 nM in assay [2]; 95.2 µM in assay [3]; over 100000 nM in [8]; over 100000 nM in assay [10]; over 100000 nM in [5]. Besides, the GI50 in assay [6] and in [7] was over 100000 nM throughout. Also, the TGI in assay [1], in [2], in assay [3], in [8], in [10] and in assay [5] was over 100 µM each time. Moreover, the TGI in [6] and in [7] was over 100 µM throughout.

Consider `CN1CCN(c2ccc(C(=O)Nc3cccc(C#Cc4cccc5[nH]nc(N)c45)c3)cc2C(F)(F)F)CC1`, for which the GI50 in assay [1] is 1680 nM; in assay [2], 658 nM; in assay [3] it was 1.21 µM; in [8] it was 1240 nM; in [10] it was 2120 nM; in assay [5], 701 nM. Moreover, the GI50 is 644 nM in [6] and 636 nM in assay [7]. The TGI in assay [1] turned out to be 4.92 µM; in assay [2], 1.31 µM; in [3], 4.85 µM; in assay [8], 5.55 µM; in assay [10] it was 6.94 µM; in assay [5], 1.5 µM. Further, the TGI came out at 1.27 µM in [6] and 1.34 µM in assay [7].
